SMILES strings stand for the structures. pIC50: −log10 of the molar value. Where only a bound is given, the exact number is not on record here.

PRMT5, sequence (O14744 whole entry): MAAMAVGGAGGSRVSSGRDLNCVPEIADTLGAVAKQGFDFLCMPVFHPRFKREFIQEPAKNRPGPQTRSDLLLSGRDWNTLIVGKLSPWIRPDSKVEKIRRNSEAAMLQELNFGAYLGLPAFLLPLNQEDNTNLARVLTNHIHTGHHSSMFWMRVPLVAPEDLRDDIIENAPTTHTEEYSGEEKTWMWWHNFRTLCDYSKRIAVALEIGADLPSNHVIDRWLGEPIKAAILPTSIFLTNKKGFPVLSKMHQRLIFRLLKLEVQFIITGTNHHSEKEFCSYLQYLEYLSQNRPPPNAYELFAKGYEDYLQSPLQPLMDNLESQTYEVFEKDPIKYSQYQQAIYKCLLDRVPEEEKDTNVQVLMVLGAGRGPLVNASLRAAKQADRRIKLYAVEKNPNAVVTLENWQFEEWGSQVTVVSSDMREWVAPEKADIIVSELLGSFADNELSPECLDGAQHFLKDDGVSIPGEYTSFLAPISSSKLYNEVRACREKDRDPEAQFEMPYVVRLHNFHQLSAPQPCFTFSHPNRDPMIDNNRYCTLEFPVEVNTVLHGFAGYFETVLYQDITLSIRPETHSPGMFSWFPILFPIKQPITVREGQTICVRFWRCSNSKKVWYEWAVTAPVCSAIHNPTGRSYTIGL
PRMT5, sequence (Q9BQA1 whole entry partner): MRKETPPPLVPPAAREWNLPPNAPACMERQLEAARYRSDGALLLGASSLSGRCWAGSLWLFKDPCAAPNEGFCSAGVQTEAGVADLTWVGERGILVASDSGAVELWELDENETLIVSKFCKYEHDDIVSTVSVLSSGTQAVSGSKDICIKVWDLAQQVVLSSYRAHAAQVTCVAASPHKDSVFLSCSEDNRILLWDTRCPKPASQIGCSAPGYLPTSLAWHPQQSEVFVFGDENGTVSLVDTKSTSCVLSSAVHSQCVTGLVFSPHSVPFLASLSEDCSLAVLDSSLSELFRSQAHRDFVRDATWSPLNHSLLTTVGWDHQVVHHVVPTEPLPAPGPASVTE

In this assay the target is PRMT5 (Homo sapiens (Human), UniProt O14744). Briefly: Inhibitory activity against PRMT5 enzyme by radioisotopic method. In kind it is biochemical. As to conditions: PRMT5 5 nM, [3H]-SAM 0.3 μM, polypeptide substrate GL-27 100 nM, room temperature. The method, then:
Test Example 1. Test on the inhibitory activity of the compounds of the invention against PRMT5 enzyme by radioisotopic method
Test method: A 1× enzyme reaction buffer (10 mM Tris 8.0 (Sigma, Cat. No. T2694-1L), 0.01% Tween-20 (Sigma, Cat. No. P2287-100 ML), 1 mM DTT (Sigma, Cat. No. D0632-10G)) was prepared. PRMT5 (Active Motif, Cat. No. 31921) and [3H]—SAM (PerkinElmer, Cat. No. NET155V001MC) were added to the 1×enzyme reaction buffer, to prepare a 25/15× mixed solution (PRMT5 final concentration: 5 nM, [3H]—SAM final concentration: 0.3 μM). 15 μL of this solution was transferred into a 384-well microplate (Corning 384-well Polypropylene Storage Microplates, Cat. No. 3657) with various concentrations of the compounds (DMSO final concentration 1%), and incubated at room temperature for 60 minutes. A polypeptide substrate, GL-27 (Ac-[…]-K (Biotin) (GL Biochem, Cat. No. 342095)), was added into the 1×enzyme reaction buffer to prepare a 25/10× substrate solution. Then 10 μL of the polypeptide substrate solution (final concentration of the polypeptide substrate: 100 nM) was added, a reaction was stirred at room temperature for 120 minutes, and then 5 μL 6× ice cold SAM (Sigma, Cat. No. A7007-100 MG) solution was added to stop the reaction (SAM final concentration: 0.125 mM). 25 µL of the reaction mixture was transferred into a FlashPlate (Streptavidin FlashPlate HTS PLUS, High Capacity, 384-well, Perkin Elmer, Cat. No. SMP410A001PK), and incubated at room temperature for 1 h. After washed three times with distilled water containing 0.1% Tween-20, the microplate was read on a MicroBeta reader for CPM data (Counts Per Minute). […] Then the inhibition rate Inh % (Y) corresponding to each concentration (X) was input in EXCEL, and the IC50 value (the half maximal inhibitory concentration) of each compound was calculated with the XLfit plug-in according to the built-in four-parameter fitting equation Y=Bottom+(Top-Bottom)/(1+(IC50/X)[…]).
For `O[C@H]1CN(c2cc(Nc3cccc(C4CC4)c3)ncn2)CC[C@@H]1N1CCc2ccccc2C1` (relative stereo) [Example 35, trans-1-(6-((3-cyclopropylphenyl)amino)pyrimidin-4-yl)-4-(3,4-dihydroisoquinolin-2(1H)-yl)piperidin-3-ol], the pIC50 is over 7.00.

`COc1ccc(F)cc1Nc1cc(N2CC[C@@H](N3CCc4ccccc4C3)[C@H](O)C2)ncn1` (relative stereo) [Example 92, trans-1-(6-((5-fluoro-2-methoxyphenyl)amino)pyrimidin-4-yl)-4-(3,4-dihydroisoquinolin-2(1H)-yl)piperidin-3-ol] had a pIC50 of over 7.00.

On to `CCOc1ccccc1Nc1cc(N2CC[C@@H](N3CCc4ccccc4C3)[C@H](O)C2)ncn1` (relative stereo) [Example 90, trans-1-(6-((2-ethoxyphenyl)amino)pyrimidin-4-yl)-4-(3,4-dihydroisoquinolin-2(1H)-yl)piperidin-3-ol], for which the pIC50 was over 7.00.

The compound `O[C@@H]1CN(c2cc(Nc3cccc(F)c3F)ncn2)CC[C@H]1N1CCc2ccccc2C1` (relative stereo) [Example 87, trans-1-(6-((2,3-difluorophenyl)amino)pyrimidin-4-yl)-4-(3,4-dihydroisoquinolin-2(1H)-yl)piperidin-3-ol] gave a pIC50 of over 7.00.

For the compound `COc1nc(NC2CCN(C(C)=O)CC2)cc(C(=O)N2CC[C@H](N3CCc4ccccc4C3)[C@@H](O)C2)n1` (relative stereo) [Example 120, 1-(4-((6-(trans-4-(3,4-dihydroisoquinolin-2(1H)-yl)-3-hydroxypiperidine-1-carbonyl)-2-methoxypyrimidin-4-yl)amino)piperidin-1-yl)ethan-1-one], the pIC50 is over 7.00.

Regarding `O=C(C(=O)N1CCC2(CC1)CC(Nc1cc(C(=O)N3CC[C@H](N4CCc5ccccc5C4)[C@@H](O)C3)ncn1)C2)C1CC1` (relative stereo) [Example 98, 1-cyclopropyl-2-(2-((6-(trans-4-(3,4-dihydroisoquinolin-2(1H)-yl)-3-hydroxypiperidine-1-carbonyl)pyrimidin-4-yl)amino)-7-azaspiro[3.5]nonan-7-yl)ethane-1,2-dione], the negative logarithm of the IC50 (pIC50) was over 7.00.

Turning to `O[C@@H]1CN(c2cc(Nc3cccc(-c4ccccc4)c3)ncn2)CC[C@H]1N1CCc2ccccc2C1` (relative stereo) [Example 74, trans-1-(6-([1,1′-biphenyl]-3-ylamino)pyrimidin-4-yl)-4-(3,4-dihydroisoquinolin-2(1H)-yl)piperidin-3-ol], the pIC50 was over 7.00.

On to `O[C@H]1CN(c2cc(Nc3ccccc3F)ncn2)CC[C@@H]1N1CCc2ccccc2C1` (relative stereo) [Example 53, trans-4-(3,4-dihydroisoquinolin-2(1H)-yl)-1-(6-((2-fluorophenyl)amino)pyrimidin-4-yl)piperidin-3-ol], for which the pIC50 was over 7.00.

Regarding `CC(=O)N1CCC(CCNc2cc(C(=O)N3CC[C@H](N4CCc5ccccc5C4)[C@@H](O)C3)ncn2)CC1` (relative stereo) [Example 115, trans-1-(4-(2-((6-(4-(3,4-dihydroisoquinolin-2(1H)-yl)-3-hydroxy-piperidine-1-carbonyl)pyrimidin-4-yl)amino)ethyl)piperidin-1-yl)ethanone], the pIC50 was over 7.00.

Regarding `O[C@H]1CN(c2cc(Nc3cccc4c3OCCO4)ncn2)CC[C@@H]1N1CCc2ccccc2C1` (relative stereo) [Example 94, trans-1-(6-((2,3-dihydrobenzo[b][1,4]dioxin-5-yl)amino)pyrimidin-4-yl)-4-(3,4-dihydroisoquinolin-2(1H)-yl)piperidin-3-ol], the pIC50 is over 7.00.

With `CC(=O)N1CCC(Nc2cc(C(=O)N3CC[C@@H](N4CCc5ccccc5C4)[C@H](O)C3)nc([S+]([O-])C(C)C)n2)CC1` (stereo partly drawn) [Example 157, 1-(4-((6-((3R,4R)-4-(3,4-dihydroisoquinolin-2(1H)-yl)-3-hydroxypiperidine-1-carbonyl)-2-(isopropylsulfinyl)pyrimidin-4-yl)amino)piperidin-1-yl)ethan-1-one], the pIC50 was over 7.00.

The values above are taken from US20240336593A1, “Compound Having Antitumor Activity And Use Thereof” (lnnovStoneTherapeutics Limited, priority 2020, published 2024).
